Data reported in article PMC11433573 (Marine Drugs, 2024).
Positions of bridges follow the written chain, without caps; N, C: chain ends. Non-standard residues stand in square brackets, D forms with d. Residues, ends and D or L forms follow the SMILES beside them. Hyp = O=C(O)[C@@H]1C[C@@H](O)CN1

Assays:
Experiment in all cases: cell-based
rα7 nAChR = molecular target: T1, rα7 nAChR (Rattus norvegicus, UniProt Q05941)
T1 construct: expressed in transfected cells; host or cells: Xenopus laevis oocytes injected with cRNA
T1 sequence (Q05941 23-502): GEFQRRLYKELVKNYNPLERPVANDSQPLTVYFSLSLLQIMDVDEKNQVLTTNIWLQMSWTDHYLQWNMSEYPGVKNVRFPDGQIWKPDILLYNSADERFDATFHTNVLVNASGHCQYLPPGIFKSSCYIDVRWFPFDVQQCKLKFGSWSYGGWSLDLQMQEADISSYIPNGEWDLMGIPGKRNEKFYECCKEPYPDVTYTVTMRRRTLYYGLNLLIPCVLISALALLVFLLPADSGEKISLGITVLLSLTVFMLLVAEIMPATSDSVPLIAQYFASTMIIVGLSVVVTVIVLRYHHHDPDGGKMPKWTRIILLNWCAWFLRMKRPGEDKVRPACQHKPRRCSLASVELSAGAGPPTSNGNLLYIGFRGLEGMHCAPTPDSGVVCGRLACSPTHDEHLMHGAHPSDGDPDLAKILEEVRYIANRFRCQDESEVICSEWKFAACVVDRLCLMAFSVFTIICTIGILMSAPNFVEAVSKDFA

rα3β2 nAChR = molecular target: T2, rα3β2 nAChR (Rattus norvegicus, UniProt P04757+P12390); conditions: for inhibition at 10 µM: read-out: inhibition of rα3β2 at 10 μM
T2 construct: expressed in transfected cells; host or cells: Xenopus laevis oocytes injected with cRNA
T2 sequence (P04757 26-499): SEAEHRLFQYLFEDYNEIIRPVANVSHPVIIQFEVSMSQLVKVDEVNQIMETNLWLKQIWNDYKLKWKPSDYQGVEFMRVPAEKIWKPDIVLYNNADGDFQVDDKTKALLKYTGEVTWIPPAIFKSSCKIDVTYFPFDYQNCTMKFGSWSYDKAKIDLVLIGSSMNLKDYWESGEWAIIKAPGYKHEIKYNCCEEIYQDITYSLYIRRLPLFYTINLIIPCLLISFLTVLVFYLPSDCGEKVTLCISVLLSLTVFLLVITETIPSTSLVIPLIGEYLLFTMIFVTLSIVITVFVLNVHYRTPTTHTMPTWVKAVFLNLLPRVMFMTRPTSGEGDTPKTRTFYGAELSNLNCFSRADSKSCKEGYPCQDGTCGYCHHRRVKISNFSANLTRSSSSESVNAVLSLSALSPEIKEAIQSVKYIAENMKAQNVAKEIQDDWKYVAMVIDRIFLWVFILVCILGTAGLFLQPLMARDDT
T2 sequence (P12390 25-500): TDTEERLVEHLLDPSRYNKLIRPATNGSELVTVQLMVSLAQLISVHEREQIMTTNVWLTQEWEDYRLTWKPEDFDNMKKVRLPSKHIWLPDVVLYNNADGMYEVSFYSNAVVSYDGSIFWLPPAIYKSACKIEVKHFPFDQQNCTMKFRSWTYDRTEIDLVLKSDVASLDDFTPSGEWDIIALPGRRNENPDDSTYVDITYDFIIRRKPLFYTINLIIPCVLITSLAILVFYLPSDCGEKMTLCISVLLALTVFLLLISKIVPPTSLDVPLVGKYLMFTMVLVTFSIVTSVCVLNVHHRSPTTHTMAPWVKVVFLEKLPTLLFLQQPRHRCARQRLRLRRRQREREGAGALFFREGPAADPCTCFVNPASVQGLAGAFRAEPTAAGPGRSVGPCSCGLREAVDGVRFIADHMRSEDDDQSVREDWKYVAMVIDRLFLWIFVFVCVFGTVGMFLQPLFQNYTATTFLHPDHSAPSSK

rα3β4 nAChR = molecular target: T3, rα3β4 nAChR (Rattus norvegicus, UniProt P04757+P12392); conditions: for inhibition at 10 µM: read-out: inhibition of rα3β4 at 10 μM
T3 construct: expressed in transfected cells; host or cells: Xenopus laevis oocytes injected with cRNA
T3 sequence (P04757 26-499): as the sequence (P04757 26-499) above
T3 sequence (P12392 22-495 limits assumed): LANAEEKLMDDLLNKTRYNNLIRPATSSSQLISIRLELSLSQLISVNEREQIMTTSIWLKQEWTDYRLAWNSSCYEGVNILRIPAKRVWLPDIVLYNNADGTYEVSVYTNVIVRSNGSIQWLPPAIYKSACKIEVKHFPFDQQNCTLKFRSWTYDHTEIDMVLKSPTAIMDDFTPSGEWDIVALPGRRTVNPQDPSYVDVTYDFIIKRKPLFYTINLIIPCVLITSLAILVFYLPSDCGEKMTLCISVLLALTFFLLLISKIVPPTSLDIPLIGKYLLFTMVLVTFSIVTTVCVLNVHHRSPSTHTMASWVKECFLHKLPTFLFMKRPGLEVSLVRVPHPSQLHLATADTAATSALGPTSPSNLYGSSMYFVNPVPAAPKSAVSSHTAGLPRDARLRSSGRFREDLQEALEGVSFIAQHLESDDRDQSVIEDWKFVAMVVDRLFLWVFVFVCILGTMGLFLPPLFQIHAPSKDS

SMILES | IC50 (rα7 nAChR) | IC50 (rα3β2 nAChR) | IC50 (rα3β4 nAChR) | inhibition at 10 µM (rα3β2 nAChR) | inhibition at 10 µM (rα3β4 nAChR)
CC[C@H](C)[C@@H]1NC(=O)[C@H](Cc2cnc[nH]2)NC(=O)[C@@H]2CCCN2C(=O)[C@H](CC(N)=O)NC(=O)[C@H](CC(N)=O)NC(=O)[C@H](C(C)C)NC(=O)[C@H](CC(N)=O)NC(=O)[C@@H]2CSSC[C@H](NC(=O)CN)C(=O)N[C@@H](CSSC[C@@H](C(N)=O)NC1=O)C(=O)N[C@@H](CO)C(=O)N[C@@H](Cc1cnc[nH]1)C(=O)N1CCC[C@H]1C(=O)N[C@@H](C)C(=O)N2 [RegIIA, reference compound] (H-GCCSHPACNVNNPHIC-NH2; disulfide 2-8, 3-16) | 43 nM | 36 nM | 102 nM | – | –
CC[C@H](C)[C@@H]1NC(=O)[C@H](Cc2c[nH]cn2)NC(=O)[C@@H]2CCCN2C(=O)[C@H](CC(N)=O)NC(=O)[C@H](CC(N)=O)NC(=O)[C@H](C(C)C)NC(=O)[C@H](CC(N)=O)NC(=O)[C@@H]2CSSC[C@H](NC(=O)CN)C(=O)N[C@@H](CSSC[C@@H](C(N)=O)NC1=O)C(=O)N[C@@H](CO)C(=O)N[C@@H](Cc1c[nH]cn1)C(=O)N1CCC[C@H]1C(=O)NCC(=O)N2 [[A7G]RegIIA] (H-GCCSHPGCNVNNPHIC-NH2; disulfide 2-8, 3-16) | 600 nM | > 10000 nM | 964 nM | – | –
CC[C@H](C)[C@@H]1NC(=O)[C@H](Cc2c[nH]cn2)NC(=O)[C@@H]2CCCN2C(=O)[C@H](CC(N)=O)NC(=O)[C@H](CC(N)=O)NC(=O)[C@H](C(C)C)NC(=O)[C@H](CC(N)=O)NC(=O)[C@@H]2CSSC[C@H](NC(=O)[C@H](C)N)C(=O)N[C@@H](CSSC[C@@H](C(N)=O)NC1=O)C(=O)N[C@@H](CO)C(=O)N[C@@H](Cc1c[nH]cn1)C(=O)N1CCC[C@H]1C(=O)N[C@@H](C)C(=O)N2 [[G1A]RegIIA] (H-ACCSHPACNVNNPHIC-NH2; disulfide 2-8, 3-16) | 286 nM | 90 nM | 132 nM | – | –
CC[C@H](C)[C@@H]1NC(=O)[C@H](Cc2c[nH]cn2)NC(=O)[C@@H]2CCCN2C(=O)[C@H](CC(N)=O)NC(=O)[C@H](CC(N)=O)NC(=O)[C@H](C(C)C)NC(=O)[C@H](CC(N)=O)NC(=O)[C@@H]2CSSC[C@H](NC(=O)CN)C(=O)N[C@@H](CSSC[C@@H](C(N)=O)NC1=O)C(=O)N[C@@H](CO)C(=O)N[C@@H](C)C(=O)N1CCC[C@H]1C(=O)N[C@@H](C)C(=O)N2 [[H5A]RegIIA] (H-GCCSAPACNVNNPHIC-NH2; disulfide 2-8, 3-16) | 446 nM | > 10000 nM | > 10000 nM | < 50% | < 50%
CC[C@H](C)[C@@H]1NC(=O)[C@H](Cc2c[nH]cn2)NC(=O)[C@@H]2CCCN2C(=O)[C@H](CC(N)=O)NC(=O)[C@H](CC(N)=O)NC(=O)[C@H](C(C)C)NC(=O)[C@H](CC(N)=O)NC(=O)[C@@H]2CSSC[C@H](NC(=O)CN)C(=O)N[C@@H](CSSC[C@@H](C(N)=O)NC1=O)C(=O)N[C@@H](CO)C(=O)N[C@@H](CCC(=O)O)C(=O)N1CCC[C@H]1C(=O)N[C@@H](C)C(=O)N2 [[H5E]RegIIA] (H-GCCSEPACNVNNPHIC-NH2; disulfide 2-8, 3-16) | 441 nM | > 10000 nM | > 10000 nM | – | –
CC[C@H](C)[C@@H]1NC(=O)[C@H](Cc2c[nH]cn2)NC(=O)[C@@H]2CCCN2C(=O)[C@H](CC(N)=O)NC(=O)[C@H](CC(N)=O)NC(=O)[C@H](C(C)C)NC(=O)[C@H](CC(N)=O)NC(=O)[C@@H]2CSSC[C@H](NC(=O)CN)C(=O)N[C@@H](CSSC[C@@H](C(N)=O)NC1=O)C(=O)N[C@@H](CO)C(=O)NCC(=O)N1CCC[C@H]1C(=O)N[C@@H](C)C(=O)N2 [[H5G]RegIIA] (H-GCCSGPACNVNNPHIC-NH2; disulfide 2-8, 3-16) | 3540 nM | > 10000 nM | > 10000 nM | – | –
CC[C@H](C)[C@@H]1NC(=O)[C@H](Cc2c[nH]cn2)NC(=O)[C@@H]2CCCN2C(=O)[C@H](CC(N)=O)NC(=O)[C@H](CC(N)=O)NC(=O)[C@H](C(C)C)NC(=O)[C@H](CC(N)=O)NC(=O)[C@@H]2CSSC[C@H](NC(=O)CN)C(=O)N[C@@H](CSSC[C@@H](C(N)=O)NC1=O)C(=O)N[C@@H](CO)C(=O)N[C@@H](CC(C)C)C(=O)N1CCC[C@H]1C(=O)N[C@@H](C)C(=O)N2 [[H5L]RegIIA] (H-GCCSLPACNVNNPHIC-NH2; disulfide 2-8, 3-16) | > 10000 nM | > 10000 nM | > 10000 nM | – | –
CC[C@H](C)[C@@H]1NC(=O)[C@H](Cc2c[nH]cn2)NC(=O)[C@@H]2CCCN2C(=O)[C@H](CC(N)=O)NC(=O)[C@H](CC(N)=O)NC(=O)[C@H](C(C)C)NC(=O)[C@H](CC(N)=O)NC(=O)[C@@H]2CSSC[C@H](NC(=O)CN)C(=O)N[C@@H](CSSC[C@@H](C(N)=O)NC1=O)C(=O)N[C@@H](CO)C(=O)N[C@@H](CO)C(=O)N1CCC[C@H]1C(=O)N[C@@H](C)C(=O)N2 [[H5S]RegIIA] (H-GCCSSPACNVNNPHIC-NH2; disulfide 2-8, 3-16) | 100 nM | > 10000 nM | 5730 nM | – | –
CC[C@H](C)[C@@H]1NC(=O)[C@H](Cc2c[nH]cn2)NC(=O)[C@@H]2CCCN2C(=O)[C@H](CC(N)=O)NC(=O)[C@H](CC(N)=O)NC(=O)[C@H](C(C)C)NC(=O)[C@H](CC(N)=O)NC(=O)[C@@H]2CSSC[C@H](NC(=O)CN)C(=O)N[C@@H](CSSC[C@@H](C(N)=O)NC1=O)C(=O)N[C@@H](CO)C(=O)N[C@@H](C(C)C)C(=O)N1CCC[C@H]1C(=O)N[C@@H](C)C(=O)N2 [[H5V]RegIIA] (H-GCCSVPACNVNNPHIC-NH2; disulfide 2-8, 3-16) | 97 nM | > 10000 nM | 8800 nM | – | –
CC[C@H](C)[C@@H]1NC(=O)[C@H](Cc2c[nH]cn2)NC(=O)[C@@H]2CCCN2C(=O)[C@H](CC(N)=O)NC(=O)[C@H](CC(N)=O)NC(=O)[C@H](C(C)C)NC(=O)[C@H](CC(N)=O)NC(=O)[C@@H]2CSSC[C@H](NC(=O)CN)C(=O)N[C@@H](CSSC[C@@H](C(N)=O)NC1=O)C(=O)N[C@@H](CO)C(=O)N[C@@H](Cc1c[nH]cn1)C(=O)N[C@@H](C)C(=O)N[C@@H](C)C(=O)N2 [[P6A]RegIIA] (H-GCCSHAACNVNNPHIC-NH2; disulfide 2-8, 3-16) | 459 nM | > 10000 nM | > 10000 nM | < 50% | < 50%
CC[C@H](C)[C@@H]1NC(=O)[C@H](Cc2c[nH]cn2)NC(=O)[C@@H]2CCCN2C(=O)[C@H](CC(N)=O)NC(=O)[C@H](CC(N)=O)NC(=O)[C@H](C(C)C)NC(=O)[C@H](CC(N)=O)NC(=O)[C@@H]2CSSC[C@H](NC(=O)CN)C(=O)N[C@@H](CSSC[C@@H](C(N)=O)NC1=O)C(=O)N[C@@H](CO)C(=O)N[C@@H](Cc1c[nH]cn1)C(=O)N1C[C@H](O)C[C@H]1C(=O)N[C@@H](C)C(=O)N2 [[P6O]RegIIA] (H-GCCSH[Hyp]ACNVNNPHIC-NH2; disulfide 2-8, 3-16) | > 10000 nM | > 10000 nM | > 10000 nM | – | –
CC[C@H](C)[C@@H]1NC(=O)[C@H](Cc2c[nH]cn2)NC(=O)[C@@H]2CCCN2C(=O)[C@H](CC(N)=O)NC(=O)[C@H](CC(N)=O)NC(=O)[C@H](C(C)C)NC(=O)[C@H](CC(N)=O)NC(=O)[C@@H]2CSSC[C@H](NC(=O)CN)C(=O)N[C@@H](CSSC[C@@H](C(N)=O)NC1=O)C(=O)N[C@@H](C)C(=O)N[C@@H](Cc1c[nH]cn1)C(=O)N1CCC[C@H]1C(=O)N[C@@H](C)C(=O)N2 [[S4A]RegIIA] (H-GCCAHPACNVNNPHIC-NH2; disulfide 2-8, 3-16) | 39 nM | 34 nM | 95 nM | – | –
